Assay results from patent publication US7026296B2, “Methods of treating dry eye disorders” (Alcon, Inc., priority 2002, dated 2006).

Experiments:
[1] = system: IL-6 production from CEPI-17 cells; experiment: Inhibition of hyperosmolarity-induced IL-6 production from human corneal epithelial cells in vitro; assay type: cell-based; details: Corneal epithelial cell, 1 hour pre-treatment, hypertonic KGM-HC (additional 80 mM NaCl) 6 hours, ELISA, normalized by dsDNA
Method: (§1) Inhibition of Hyperosmolarity-Induced Cytokine Production from Human Corneal Epithelial Cells in vitro.
(§2) The ocular tear film in dry eye is abnormally hyperosmolar, which is irritating to ocular surface cells. Treatment of human conjunctival epithelial cells with a hypertonic media elicits the production of pro-inflammatory cytokines. A selective JNK inhibitor, anthra[1,9-cd]pyrazol-6(2H)-one, was evaluated for inhibition of hyperosmolarity-induced cytokine secretion from the transformed human corneal epithelial cell line, CEPI-17.CEPI-17 cells were grown in complete isotonic Keratinocyte Growth Medium (iso KGM) and plated in 48-well plates in iso KGM without hydrocortisone (iso KGM-HC). When the cells reached confluence, they were pre-treated for 1 hour with the compound at the indicated concentration in iso KGM-HC. The cells were then stimulated by hypertonic KGM-HC for 6 hours (additional 80 mM NaCl added in iso KGM-HC) in the presence of the compound. Aliquots of the supernatants were assayed for IL-6,IL-8 by ELISA. Cytokine release was normalized by the amount of double stranded DNA (dsDNA) extracted from the cells. Percent inhibition of cytokine production was calculated by comparison with cytokine levels in vehicle-treated cells.

[2] = system: IL-8 production from CEPI-17 cells; experiment: Inhibition of hyperosmolarity-induced IL-8 production from human corneal epithelial cells in vitro; assay type: cell-based; details: Corneal epithelial cell, 1 hour pre-treatment, hypertonic KGM-HC (additional 80 mM NaCl) 6 hours, ELISA, normalized by dsDNA
Method: as §1, §2

O=C1c2ccccc2-c2n[nH]c3cccc1c23 [SP-600125, anthra[1,9-cd]pyrazol-6(2H)-one]
IC50 [1]: 12.6 µM | IC50 [2]: 3.7 µM
